Measurements: paper PMC10986487, “Epidrugs: alternative chemotherapy targeting Theileria annulata schizont stage parasites” (Microbiology Spectrum, 2024)
Where two headings read alike, the source gives them in different places.

What was measured:
[1] = test system: T. annulata-infected bovine cells; test: Resazurin-based drug susceptibility assay, 2-fold serial dilutions, 48 hours; assay type: cell-based, Theileria annulata; conditions: 0.019 µM to 10 µM, read-out: IC50 against T. annulata-infected cells
Description: In this study, we conducted a screening of 148 compounds from the Cayman epigenetics library against the asexual schizont stage of T. annulata-infected bovine cells to assess their potential anti-theilerial activity (Fig. 1A). The initial screening involved testing the compounds at a concentration of 10 µM, with BPQ serving as the internal control. […] Subsequently, we performed drug susceptibility assays on the selected 27 compounds to determine their 50% inhibitory concentration (IC50) values against T. annulata-infected cells. To do this, 2-fold serial dilutions ranging from 0.019 µM to 10 µM were prepared, and the percentage of cell death was assessed after 48 hours using resazurin-based assays.
Fig 1 Screening of epigenetic inhibitors for potential anti-theilerial activity in T. annulata-infected cells. (A) List of compounds and their functional classes used in this study. (B) Inhibition (%) of the hits (n = 27) with anti-theilerial activity when screened in T. annulata-infected cells, where the cut-off (--) was set at 50% inhibition. […] (E) Flow cytometry-based detection of annexin V-positive T. annulata-infected cells upon drug treatment for detection of early apoptosis.

Theileria annulata = test system: Theileria annulata; set-up: method as in earlier work; conditions: ref 14 (Titus et al.); read-out: Concentration displaying anti-theilerial effects; cited from earlier work

SMILES | IC50 [1] | IC50 ([1]; Theileria annulata) | IC50 (Theileria annulata)
CC1(C)C(=O)N=C2C1=C(O)C(=O)c1ccccc12 [BVT-948] | 2.58 µM |  | 
COC(=O)/C=C/C(=O)N(O)CCCCNCc1ccc(COC(=O)Nc2cccc3ccccc23)cc1 [Methylstat] | 6.97 µM |  | 
CC1=CC(=O)c2c(O)cccc2C1=O [Plumbagin] |  | 8.13 µM | 0.009 µM
Cc1ccc(NC2=CC(=O)c3sc(C)nc3C2=O)cc1 [Ryuvidine] | 2.18 µM |  | 
O=C(CCl)Nc1ccc(S(=O)(=O)c2ccc(NC(=O)CCl)cc2)cc1 [TCE-5003] | 3.68 µM |  | 
CC(/C=C/C(=O)NO)=C\[C@@H](C)C(=O)c1ccc(N(C)C)cc1 [Trichostatin A] | 6.02 µM |  | 
